Measurements as given in patent US6548494B1, “Tricyclic inhibitors of poly(ADP-ribose) polymerases” (Agouron Pharmaceuticals, Inc., priority 1999, dated 2003).
Where “and” joins values, the source holds several entries; their conditions need not be identical. Identical values can stand only once.

The compounds below were run against purified PARP protein (Homo sapiens, UniProt P09874) (assay: PARP enzyme inhibition assay). Settings: 20 nM purified PARP (5 nM for tight-binding inhibitors), 500 μM NAD+, 25° C.; several values in one cell = repeat determinations; read-out: Inhibition Constant Ki.
Chain of purified PARP protein (P09874 whole entry): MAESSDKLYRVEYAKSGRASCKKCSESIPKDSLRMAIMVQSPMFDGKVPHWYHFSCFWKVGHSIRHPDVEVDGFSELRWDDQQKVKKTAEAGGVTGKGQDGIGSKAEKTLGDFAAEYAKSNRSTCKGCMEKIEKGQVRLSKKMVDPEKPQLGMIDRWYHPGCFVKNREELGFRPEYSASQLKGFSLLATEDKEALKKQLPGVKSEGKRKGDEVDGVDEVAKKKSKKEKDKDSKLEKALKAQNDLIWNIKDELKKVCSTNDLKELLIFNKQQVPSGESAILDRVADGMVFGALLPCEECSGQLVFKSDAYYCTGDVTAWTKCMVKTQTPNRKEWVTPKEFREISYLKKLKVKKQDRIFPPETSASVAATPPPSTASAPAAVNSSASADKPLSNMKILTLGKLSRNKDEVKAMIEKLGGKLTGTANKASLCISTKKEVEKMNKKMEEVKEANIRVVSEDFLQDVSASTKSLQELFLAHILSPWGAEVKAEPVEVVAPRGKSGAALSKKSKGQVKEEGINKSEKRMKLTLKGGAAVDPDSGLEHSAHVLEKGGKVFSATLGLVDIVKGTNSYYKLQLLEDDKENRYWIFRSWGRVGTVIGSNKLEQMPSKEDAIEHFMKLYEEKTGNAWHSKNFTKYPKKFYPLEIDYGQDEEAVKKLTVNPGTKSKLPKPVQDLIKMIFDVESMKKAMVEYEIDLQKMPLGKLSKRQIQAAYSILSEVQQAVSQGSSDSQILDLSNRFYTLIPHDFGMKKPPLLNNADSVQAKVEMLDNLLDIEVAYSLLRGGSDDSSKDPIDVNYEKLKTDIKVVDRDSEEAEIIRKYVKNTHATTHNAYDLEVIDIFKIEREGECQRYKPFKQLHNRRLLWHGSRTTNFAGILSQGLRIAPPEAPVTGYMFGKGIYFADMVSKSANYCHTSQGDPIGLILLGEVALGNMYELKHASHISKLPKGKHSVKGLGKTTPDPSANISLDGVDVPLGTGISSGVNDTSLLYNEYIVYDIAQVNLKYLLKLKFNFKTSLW
Format: biochemical

Ki | Compound
5.8 nM | O=C1NCCn2c(-c3ccc(CNCCCc4ccccc4)cc3)nc3cccc1c32 [Example 201, 1-{4-[(3-Phenyl-propylamino)-methyl]-phenyl}-8,9-dihydro-7H-2,7,9a-triaza-benzo[cd]azulen-6-one]
4.6 nM | O=C1NCCn2c(-c3ccc(CN4CCC(O)C4)cc3)nc3cc(F)cc1c32 (stereo not drawn) [Example 172, 4-Fluoro-1-[4-(3-hydroxy-pyrrolidin-1-ylmethyl)-phenyl]-8,9-dihydro-7H-2,7,9a-triaza-benzo[cd]azulen-6-one]
11 nM | CC1(C)CC2CC(C)(CN2Cc2ccc(-c3nc4cccc5c4n3CCNC5=O)cc2)C1 (stereo not drawn) [Example 215, 1-[4-(1,3,3-Trimethyl-6-aza-bicyclo[3.2.1]oct-6-ylmethyl)-phenyl]-8,9-dihydro-7H-2,7,9a-triaza-benzo[cd]azulen-6-one]
7.3 nM | CN(C)Cc1ccc(-c2nc3cccc4c3n2C[C@H](CO)NC4=O)cc1 [Example 238, (R)-1-(4-Dimethylaminomethyl-phenyl)-8-hydroxymethyl-8,9-dihydro-7H-2,7,9a-triaza-benzo[cd]azulen-6-one]
8.3 nM | CC1CCC(C)N1Cc1ccc(-c2nc3cccc4c3n2CCNC4=O)cc1 (stereo not drawn) [Example 214, 1-[4-(2,5-Dimethyl-pyrrolidin-1-ylmethyl)-phenyl]-8,9-dihydro-7H-2,7,9a-triaza-benzo[cd]azulen-6-one]
600 nM | COc1ccc(C2CNC(=O)c3cccc4nc(-c5ccc(Cl)cc5)n2c34)cc1 (racemic) [Example 54, (RS)-(±)-1-(4-Chloro-phenyl)-9-(4-methoxy-phenyl)-8,9-dihydro-7H-2,7,9a-triaza-benzo[cd]azulen-6-one]
7.9 nM | O=C1NCCn2c(-c3ccc(CN4CCc5ccccc5C4)cc3)nc3cccc1c32 [Example 198, 1-[4-(3,4-Dihydro-1H-isoquinolin-2-ylmethyl)-phenyl]-8,9-dihydro-7H-2,7,9a-triaza-benzo[cd]azulen-6-one]
22 nM | C[N+](C)([O-])Cc1ccc(-c2nc3cccc4c3n2CCNC4=O)cc1 [Example 131]
6.2 nM | CN1CCCC1CCNCc1ccc(-c2nc3cccc4c3n2CCNC4=O)cc1 (stereo not drawn) [Example 194, 1-(4-{[2-(1-Methyl-pyrrolidin-2-yl)-ethylamino]-methyl}-phenyl)-8,9-dihydro-7H-2,7,9a-triaza-benzo[cd]azulen-6-one]
3.2 nM | CN(CCc1ccccn1)Cc1ccc(-c2nc3cccc4c3n2CCNC4=O)cc1 [Example 202, 1-(4-{[Methyl-(2-pyridin-2-yl-ethyl)-amino]-methyl}-phenyl)-8,9-dihydro-7H-2,7,9a-triaza-benzo[cd]azulen-6-one]
11 nM | CC(C)(C)OC(=O)NC1CCN(Cc2ccc(-c3nc4cccc5c4n3CCNC5=O)cc2)C1 (stereo not drawn) [Example 219, {1-[4-(6-oxo-6,7,8,9-Tetrahydro-2,7,9a-triaza-benzo[cd]azulen-1-yl)-benzyl]-pyrrolidin-3-yl}-carbamic Acid tert-Butyl Ester]
3.9 nM | O=C1NCCn2c(-c3ccc(CNCc4ccccc4)cc3)nc3cccc1c32 [Example 196, 1-[4-(Benzylamino-methyl)-phenyl]-8,9-dihydro-7H-2,7,9a-triaza-benzo[cd]azulen-6-one]
6.4 nM | O=C1NCCn2c(-c3ccc(CNCCc4ccncc4)cc3)nc3cccc1c32 [Example 206, 1-{4-[(2-Pyridin-4-yl-ethylamino)-methyl]-phenyl}-8,9-dihydro-7H-2,7,9a-triaza-benzo[cd]azulen-6-one]
5.4 nM | O=C1NCCn2c(-c3ccc(C(Cc4ccccc4)N4CCCC4)cc3)nc3cccc1c32 (stereo not drawn) [Example 247, 1-[4-(2-Phenyl-1-pyrrolidin-1-yl-ethyl)-phenyl]-8,9-dihydro-7H-2,7,9a-triaza-benzo[cd]azulen-6-one]

Compound | Ki
O=Cc1cn2c3c(cccc13)C(=O)NCC2 [Example 45, 1-Oxo-1,2,3,4-tetrahydro-[1,4]diazepino[6,7,1-hi]indole-7-carbaldehyde] | 167 nM and 185 nM
